The source of these data is patent US20130344106A1, “Methods and Compositions for Improving Immune Response by a Nutraceutical Antioxidant” (priority 2008, published 2013).

Entries after “also recorded” stand apart in the source; their conditions may differ.

One data set concerns BALB/c mice. The note with it: orally administered 1.6 g/kg, Senaldi et al.; cited from earlier work.
In another data set the test system is cellular proteins. The note with it: NAC at the time of TNCB sensitization; Bruchhausen et al.; cited from earlier work.
The next data set has as its system OXA-treated BALB/c mice. Conditions: Särnstrand et al.; cited from earlier work.
A further data set has as its system CD11c+ BM-DCs. The data set is described as follows: MBB staining and flow cytometry of cellular thiol in BM-DCs. The note with it: P<0.05.
The next data set has as its system BM-DCs from old mice. As to the kind of experiment: CHS response by adoptive transfer of DNBS-pulsed BM-DCs treated ex vivo. The note with it: DNFB challenge of young recipients. It is filed as in vivo, mouse. Here is the method: For sensitization (day 0), 0.5×10^6 DNBS-treated DCs were injected subcutaneously with 100 μL of saline into the flanks of recipient mice. Five days later, mice were challenged by means of DNFB application to the ear. Mice injected with the same number of unmodified DCs or mock treated and challenged with vehicle alone served as negative controls.

A further data set concerns NQO1 mRNA. The note with it: BM-DCs from old animals; SFN 5 μmol/L for 24 hours; P<0.001. The method, then: (§1) FIG. 9. […] A. Total RNA was extracted from CD11c^+ BM-DCs to perform real-time PCR for p2E.
(§2) Total RNA was extracted from DCs or tissues by using the RNeasy Mini Kit (Qiagen, Inc, Valencia, Calif.), according to the manufacturer's recommendations. Contaminating DNA was removed with a DNA-free kit (Ambion, Inc, Austin, Tex.). Total RNA was spectrophotometrically quantitated. A 1 μg RNA sample was reverse transcribed by using the iScriptTMcDNA Synthesis Kit (Bio-Rad Laboratories, Hercules, Calif.). The cDNA templates were stored at −40° C.
(§3) PCR was carried out with an iQTM SYBR Green Supermix (Bio-Rad Laboratories) by using an iCycler (Bio-Rad Laboratories), according to the manufacturer's instructions. The sequences for the primers for IFN-γ, IL-4, T-bet, heme oxygenase 1, Nrf2, NQO1, glutathione S-transferase, GCLS, GPx, and β-actin are summarized in Table 1. The final PCR mixture contained 1 μL of cDNA template and 400 nM of the forward and reverse primers in a final volume of 25 μL. Samples were run concurrently with a standard curve prepared from the PCR products. Serial dilutions were performed to obtain appropriate template concentrations. B-Actin was used as a reference gene for the recovery of RNA, as well as reverse transcription efficiency. Melting curve analysis was used to confirm specific replicon formation.

The subject of another data set is γ-GCLS mRNA. Conditions: BM-DCs from old animals; SFN 5 μmol/L for 24 hours; P<0.05. The method, then: as §1, §2, §3
A further data set deals with heme oxygenase 1 mRNA. The note with it: BM-DCs from old animals; SFN 5 μmol/L for 24 hours; P<0.05. Here is the method: as §1, §2, §3
In data set [1] the test system is p2Es (NQO1, glutathione S-transferase, γ-GCLS, and GPx) mRNA. The note with it: SFN administration versus livers of control animals. The method, then: (§4) SFN (9 μmol/d per mouse) in 0.2 mL, of corn oil was administered by means of gavage on consecutive days. The control group received corn oil alone. Pretreatment with SFN or corn oil commenced 5 days before and was carried through until the performance of the antigen challenge (i.e., 11 days total).
as §2
as §3, with “B-Actin was used as a reference gene for the recovery of RNA, as well as reverse transcription efficiency. Melting curve analysis was used to confirm specific replicon formation.” left out

The test system of data set [2] is Nrf2-mediated phase II enzyme (p2E) gene expression. Conditions: absent in Nrf2-deficient animals; recent studies; cited from earlier work.
Another data set relates to GATA-3. Conditions: SFN gavage; DNFB challenge. Here is the method: (§5) IFN-γ and IL-4 message levels were measured in the ear tissues that were taken 48 hours after challenge to determine whether the induction of the CHS response is accompanied by polarized T cell differentiation.
The subject of data set [3] is old female C57BL/6 (B6) mice. The note with it: SFN gavage. The text has this:
(§6) Young (2-4 months) and old (19-22 mouths) female C57BL/6 (B6) mice were obtained from the Jackson Laboratory and the National Institute of Aging colony (Bethesda, Md.), respectively. Nrf2^+/+ and nrf2^−/− mice, which were initially obtained from Dr. Y. Kan (Chan and Kan, Proc Natl Acad Sci USA, 96:1231-6 (1997)), were backcrossed onto a C57BL/6 background for 7 generations.
Oxazalone (OXA; 3%), dissolved in 100% ethanol, was applied on the shaved mouse abdomen on day 0. Control animals were exposed to vehicle alone. Six days after sensitization, mice were challenged on both sides of both ears by means of epicutaneous application of 20 μL of a 1% OXA solution (Gaspari and Katz, Current Protocols in immunology, John Wiley & Sons (Hoboken, N.J., 2003)). 2,4-Dinitro-1-fluambenzene (DNFB) sensitization was accomplished by the application of 0.5% of the chemical dissolved in 4:1 acetone/olive oil onto the shaved abdomen (days 0 and 1). On day 5, mice were challenged by means of epicutaneous application of 0.2% DNFB on both ears. Ear thickness was measured before and 24 and 48 hours after challenge by using a dial thickness gauge (Mitutoyo, Japan). Mice were killed 48 hours after challenge, and ear tissues were removed for RNA extraction and cytokine message expression, as well as for hematoxylin and eosin staining. […]

Another data set relates to IFN-γ mRNA. Conditions: old mice; SFN gavage; 48 hours after DNFB challenge. The method, then: (§7) Oxazalone (OXA; 3%), dissolved in 100% ethanol, was applied on the shaved mouse abdomen on day 0. Control animals were exposed to vehicle alone. Six days after sensitization, mice were challenged on both sides of both ears by means of epicutaneous application of 20 μL of a 1% OXA solution (Gaspari and Katz, Current Protocols in immunology, John Wiley & Sons (Hoboken, N.J., 2003)). 2,4-Dinitro-1-fluambenzene (DNFB) sensitization was accomplished by the application of 0.5% of the chemical dissolved in 4:1 acetone/olive oil onto the shaved abdomen (days 0 and 1). On day 5, mice were challenged by means of epicutaneous application of 0.2% DNFB on both ears. Ear thickness was measured before and 24 and 48 hours after challenge by using a dial thickness gauge (Mitutoyo, Japan). Mice were killed 48 hours after challenge, and ear tissues were removed for RNA extraction and cytokine message expression, as well as for hematoxylin and eosin staining.
as §2
(§8) PCR was carried out with an iQTM SYBR Green Supermix (Bio-Rad Laboratories) by using an iCycler (Bio-Rad Laboratories), according to the manufacturer's instructions. The sequences for the primers for IFN-γ, IL-4, T-bet, heme oxygenase 1, Nrf2, NQO1, glutathione S-transferase, GCLS, GPx, and β-actin are summarized in Table 1. The final PCR mixture contained 1 μL of cDNA template and 400 nM of the forward and reverse primers in a final volume of 25 μL. […]
as §5

A further data set relates to T-bet mRNA. The note with it: old versus young sensitized animals; SFN gavage; DNFB challenge. Here is the method: as §7, §2, §8, §5
A further data set concerns IL-4 mRNA. The note with it: old mice; SFN gavage; 48 hours after DNFB challenge. Here is the method:
as §7, §2, §8, §5

For data set [4] the following is noted: SFN administration by gavage. Here is the method: as §6, §4
The test system of the next data set is Nrf2. The note with it: old rats; cited from earlier work.

As to `CC(=O)N[C@@H](CS)C(=O)O` [NAC, N-acetylcysteine], the TNCB response result in the data set with BALB/c mice was “reduced the TNCB response”. The “binding of the contact sensitizer TNCB to cellular proteins” value in the data set on cellular proteins was “block the binding”. The ear thickness entry in the data set with OXA-treated BALB/c mice was “dose-dependent increase”. In addition, in the data set on CD11c+ BM-DCs (BM-DCs, NAC exposure (FIG. 8: 20 mmol/L for 24 hours)), the “increase in cellular thiol content (MBB staining)” value was found to be 25%. Moreover, the “CHS response in recipients of DNBS-pulsed DCs from old animals” value in the data set with BM-DCs from old mice (ex vivo NAC treatment of BM-DCs (20 mM for 1 hour), washed) is “restored the CHS response; also recorded: increases the CHS response; also recorded: reverses the age-related decrease in the CHS response”.
On to `C[S+]([O-])CCCCN=C=S` (centres unmarked) [SFN, sulforaphane], for which, in the data set with NQO1 mRNA, the “NQO1 mRNA level” value was “significant upregulation”. In addition, the “γ-GCLS mRNA level” value in the data set on γ-GCLS mRNA is “significant upregulation”. In addition, the “heme oxygenase 1 mRNA level” value with heme oxygenase 1 mRNA was “significant upregulation”. For the same compound, the “p2E mRNA levels in liver (NQO1, glutathione S-transferase, γ-GCLS, GPx)” value in [1] is on record as “message levels for 3 of the 4 genes were increased”. For the same compound, the “Nrf2-mediated phase II enzyme (p2E) gene expression” value in data set [2] is “significantly activates”. Further, the “expression of GATA-3” value with GATA-3 was “Neither aging nor SFN treatment had an effect”. In addition, the “ear-swelling response in nonsensitized (control) animals” value in data set [3] (nonsensitized control animals) is listed as “no effect”. The “decrease in lymphocyte infiltration and intercellular edema in ear (hematoxylin and eosin)” value in data set [3] (old mice, ear histology 48 hours after challenge) is “could be reversed”. Besides, the “IFN-γ message level in ear tissue” value in the data set on IFN-γ mRNA is “significantly increased”. For the same compound, the “T-bet message level in ear tissue” value in the data set on T-bet mRNA is on record as “prevented this decrease to a significant degree”. Also, in the data set with IL-4 mRNA, the “IL-4 message level in ear tissue” value was “not significantly affected”. In addition, the “effects on overall well-being or body weight” value in data set [4] is listed as “Neither the CHS procedure nor SFN administration had any effects”. Moreover, the “increase in cellular thiol levels (MBB staining)” value with CD11c+ BM-DCs (BM-DCs from old animals, SFN 5 μmol/L for 24 hours) is reported as 15%. Also, in the data set with BM-DCs from old mice (ex vivo SFN treatment of BM-DCs (5 μM for 24 hours)), the “CHS response in recipients of DNBS-pulsed DCs from old animals” value is “could restore the CHS response; also recorded: reverses the age-related decrease in the CHS response”.
On to `O=C(O)CCCCC1CCSS1` (stereo not drawn) [α-lipoic acid], for which, in the data set with Nrf2, the “nuclear Nrf2 levels, γ-CLC expression and GSH production” value was “increase nuclear Nrf2 levels in parallel with increased γ-CLC expression and GSH production”.
